Assay results from patent US8697747B2, “Enhancing coagulation or reducing fibrinolysis” (THe UAB Research Foundation, priority 2009, dated 2014).
Marks after values point to notes of the source that are not given here.

Tests used:
[1] = system: factor VII deficient plasma; test: Thrombelastography, factor VII deficient plasma; assay type: biochemical, human; settings: 100 mmol CORM-2 vs control; FVII deficient plasma, 4 individuals
Experimental: Plasma deficient (<1% normal activity) in factor VIII (FVIII; 11 individuals), factor IX (FIX; 5 individuals), or factor VII (FVII; 4 individuals) was obtained from anonymous donors (George King Bio-Medical, Overland Park, Kans.) and was anticoagulated with sodium citrate. The final volume for all subsequently described plasma sample mixtures was […]. Sample composition consisted of […] of plasma, […] of tissue factor (0.1% final concentration in 0.9% NaCl; Diagnostica Stago, Asnieres, France), 3.6 mL of dimethyl sulfoxide (DMSO) or DMSO with CORM-2 ([…]; Sigma-Aldrich, St. Louis, Mo.), and 20 mL of […] CaCl2. […] (Motterlini et al. 2005). While CORM-2 decays slowly in DMSO, DMSO was added to the dry compound just prior to placement into the plasma mixture.
Plasma sample mixtures were placed in a disposable cup in a computer-controlled THROMBELASTOGRAPH® hemostasis system (Model 5000; Haemoscope Corp., Niles, Ill.), with addition of CaCl2 as the last step to initiate clotting. Data were collected until clot strength stabilized (maximum amplitude).
Statistical analyses. […] A paired student's t-test was used to analyze the effects of CORM-2 exposure in FVIII deficient individuals. The results of the FIX and FVII deficient groups were presented but not statistically analyzed secondary to the small number of individuals in each cohort. […] Statistical analyses and graphical representation of the data were generated with commercially available software (SigmaPlot 11.0; Systat Software Inc., San Jose, Calif.; CorelDRAW 12.0; Corel Corp., Ottawa, Ontario, Canada). A P value of less than 0.05 was considered significant.

[2] = system: rabbit plasma; test: Thrombelastography in rabbit plasma with or without tPA; assay type: biochemical
Experimental: Two sets of two Sprague Dawley outbred male rats were anesthetized with ketamine and xylazine and had blood drawn via cardiac puncture, pooled in two batches, and anticoagulated 1:9 with 3.2% sodium citrate. Two male New Zealand White rabbits were sedated with acepromazine and had blood collected via central ear artery and similarly anticoagulated. Blood was centrifuged at 3000×g for 15 min, and the plasma stored in two batches until analyzed. The final volume for thrombelastographic plasma sample mixtures was 359.6 μL. Sample composition consisted of 316 μL of plasma; 10 μL of tissue factor reagent (0.1% final concentration in dH2O; Instrumentation Laboratory, Lexington, Mass.); 10 μL of dH2O or tissue-type plasminogen activator (tPA, 580 U/μg, Genentech, Inc., San Francisco, Calif.) for a final activity of 2000 U/mL for rat plasma or 300 IU/mL for rabbit plasma; 3.6 μL of dimethyl sulfoxide (DMSO) or DMSO with CORM-2 (100 μM final concentration; Sigma-Aldrich, St. Louis, Mo.); and 20 μL of 200 mM CaCl2. The tPA activity for each species was determined with pilot data to obtain reproducible lysis within 15 min. There was no appreciable lysis in rat plasma at 100, 300, or 1000 U/mL tPA. Plasma sample mixtures were placed in a disposable cup in a computer-controlled THROMBELASTOGRAPH® hemostasis system (Model 5000, Haemoscope Corp., Niles, Ill.), with addition of CaCl2 as the last step to initiate clotting. In experiments without tPA, data were collected until clot strength (maximum amplitude) was stable. In experiments with tPA, data derived from the second rabbit plasma samples were collected for 60 min whereas data obtained with the second rat plasma samples were collected for 15 min. Thrombelastographic variables were determined at 39° C. as previously described in Examples 1, 2, and 4. Data were statistically compared with unpaired Student's t-test.

[3] = 300 U/ml tPA, 100 μM CORM-2, mean ± SD, n=4
[4] = 300 U/ml tPA, 100 μM vs 0 μM CORM-2
[5] = no tPA, 100 μM CORM-2, mean ± SD, n=7

Q: How did the “effect on MRTG” value [1] turn out when `[C-]#[O+].[C-]#[O+].[C-]#[O+].[C-]#[O+].[C-]#[O+].[C-]#[O+].[Cl][Ru][Cl].[Cl][Ru][Cl]` [CORM-2, tricarbonyldichlororuthenium (II) dimer] was run?
A: an increase in MRTG and TTG in all FVII deficient plasma donors

Q: What about the “effect on TMRTG” value [1] of the same compound?
A: an increase in TMRTG in all individuals tested

Q: What about the “effect on TTG” value [1] of the same compound?
A: an increase in MRTG and TTG in all FVII deficient plasma donors

Q: And the “ACL (area under the curve of lysis)” value [2, 3]?
A: 196.3 ± 25*^ −dynes/cm^2

Q: What about the “MRL (maximum rate of lysis)” value [2, 3] of the same compound?
A: −2.5 ± 0.4 −dynes/cm^2/sec

Q: And the “MRTG (maximum rate of thrombus generation)” value [2, 3]?
A: 14.2 ± 1.4 dynes/cm^2/sec

Q: What about the “TMRL (time to maximum rate of lysis)” value [2, 3] of the same compound?
A: 2.6 ± 0.5 min

Q: What about the “TMRTG (time to maximum rate of thrombus generation)” value [2, 3] of the same compound?
A: 2.8 ± 0.1 min

Q: What about the “TTG (total thrombus generation)” value [2, 3] of the same compound?
A: 237 ± 8 dynes/cm^2

Q: And the “Percent Change of ACL” value [2, 4]?
A: 94%

Q: And the “Percent Change of MRL” value [2, 4]?
A: −63%

Q: What about the “Percent Change of MRTG” value [2, 4] of the same compound?
A: 52%

Q: What about the “Percent Change of TMRL” value [2, 4] of the same compound?
A: 110%

Q: And the “Percent Change of TMRTG” value [2, 4]?
A: 8%

Q: And the “Percent Change of TTG” value [2, 4]?
A: 118%

Q: What about the “MRTG (maximum rate of thrombus generation)” value [2, 5] of the same compound?
A: 13.9 ± 2.9 dynes/cm^2/sec

Q: What about the “TMRTG (time to maximum rate of thrombus generation)” value [2, 5] of the same compound?
A: 2.8 ± 0.1 min

Q: What about the “TTG (total thrombus generation)” value [2, 5] of the same compound?
A: 290 ± 35 dynes/cm^2

Q: What about the “Percent Change of MRTG” value ([2]; no tPA, 100 μM vs 0 μM CORM-2) of the same compound?
A: 46%

Q: What about the “Percent Change of TMRTG” value ([2]; no tPA, 100 μM vs 0 μM CORM-2) of the same compound?
A: 5%

Q: And the “Percent Change of TTG” value ([2]; no tPA, 100 μM vs 0 μM CORM-2)?
A: 25%
